Data reported in US12677825B2, “Composition for protecting islet transplantation” (LG CHEM, LTD., priority 2020, dated 2026).

Experiments:
[1] = tested on: islets from hIAPP+/− mouse; experiment: GSIS assay after serum-deprived culture; format: cell-based; conditions: Compound 1 added to medium during serum-deprived culture; FIG. 6E
Description: (§1) Purified hIAPP^+/− FVB/N and C57BL/6J mouse were suspended in RPMI 1640 (Gibco, Grand Island, NY, USA) containing 100 IU/mL penicillin and 100 μg/mL streptomycin, and cultured at 37° C. in a fully humidified 5% CO2 atmosphere. Purified NHP islets were suspended in CMRL 1066 medium (Coming Life Sciences, Tewksbury, MA; catalog number 99-663-CV) containing 100 IU/mL penicillin and 100 μg/mL streptomycin, and cultured at 37° C. in a fully humidified 5% CO2 atmosphere. […]
After hand-picking and washing with PBS, islets were seeded on 12-mm diameter insert wells (Merck Millipore, Billerica, MA, USA) with 10 islets per well, and preincubated with 60 mg/dL glucose in Kreb's-Ringer buffer (KRB: 129 mM NaCl, 4.8 mM KCl, 2.5 mM CaCl2, 1.2 mM KH2PO4, 5 mM NaHCO3, 10 mM HEPES, and 0.2% BSA) for 90 mM at 37° C. […] Insulin release into the supernatant by the mouse islets was measured by ELISA (ALPCO, Salem, NH, USA) and a multiplex kit (Merck Millipore), respectively.

[2] = tested on: STZ-induced diabetic hIAPP+/− FVB/N mice; experiment: Marginal mass islet transplantation after serum-deprived culture with or without Compound 1; format: in vivo, mouse
Description: (§2) A marginal mass renal subcapsular islet transplantation model was used to assess the in vivo islet function of hIAPP^+/− mice. To induce diabetes, 180 mg/kg of streptozotocin (STZ, Sigma-Aldrich) was administered to 8- to 10-week-old FVB/N mice. Mice were considered to have diabetes when two consecutive blood glucose level readings were higher than 300 mg/dL. Equal amounts (400 IEQ of islets per recipient) of islets isolated from hIAPP^+/− mice were allocated to the following two groups: culture medium supplemented with 0.625% BSA (BSA group) and 0.625% BSA plus Compound 1 (BSA+Compound 1 group) to evaluate the combined effect of Compound 1 on islet mass and function during ex vivo culture. After culture for 72 hours, islets were transplanted into the renal subscapular space of diabetic hIAPP^+/− mice. The IE number was calculated using the Ricordi algorithm by classifying islets according to their diameter. After islet transplantation, non-fasting blood glucose levels were measured three times a week for the first 2 weeks and twice a week for the last 2 weeks.
At 4 weeks after transplantation, the transplantation site on the kidney of mouse were removed and embedded in paraffin. Immunohistochemical staining is briefly explained in the following. After deparaffinization, 4-μm tissue sections were stained with the polyclonal guinea pig anti-insulin antibody (1:1000, A0546, DAKO, Denmark), glucacon (1:500, ab92517, abcam, United Kingdom) and amyloid (1:2500, #44-344, Invitrogen). Stained slides were observed using an Olympus BX40 light microscope (Olympus, Japan) with […] numeric aperture and ×40/0.75 numeric aperture objectives. Photographic images were collected with a digital camera (Olympus DP50) and analyzed using the Image-Pro Plus 5.1 software.
For quantification of the DAB-labeled β-cells, all slides were imaged at 10× on a Vectra 3.0 automated quantitative pathology imaging system and analyzed using inForm software (all from Perkin-Elmer, Waltham, MA, USA). The transplanted renal tissue sections were scanned for image acquisition and then to set the transplanted tissue segmentation, a number of representative regions of transplanted islet cells and regions to be excluded from the analysis such as renal tissues were examined by learn-by-example interface. For the β-cell segmentation, a spectral library was used to identify the hematoxylin-stained nuclei and the DAB-stained cytoplasm (β-cells) within the transplanted tissue. With these training sets, the algorithm for identifying only the DAB-stained cells in the transplanted tissue was verified. All the captured 10× images were analyzed, and the DAB-stained transplanted β-cells were counted.

[3] = tested on: islet grafts in STZ-induced diabetic hIAPP+/− FVB/N mice; experiment: Amyloid accumulation in islet grafts (thioflavin S staining); format: in vivo, mouse; conditions: islets cultured 72 hours with Compound 1, vs control group; FIG. 7G
Description: as §2, with “weeks. […]” for “weeks.”

[4] = tested on: hIAPP+/− FVB/N mice islets; experiment: AO/PI staining viability during serum-deprived culture; format: cell-based, mouse; conditions: BSA culture 72 hours, with Compound 1 vs BSA alone; FIGS. 6A, 6B
Description: as §1
Islet viability after isolation and culture was assessed using double fluorescence in acridine orange (0.67 […]) and propidium iodide (75 […]) (AO/PI) staining to visualize the living and dead islet cells simultaneously. Fluorescent imaging was performed with a fluorescence microscope (Nikon ECLIPSE 80i, Tokyo, Japan) and live and dead areas were quantified using NIS-Element AR 3.0 (Nikon). The islet viability (%) was calculated as living islet cells/total islet cells×100.

Question: For O=S1(=O)CCN(Cc2cc(NC3CCOCC3)c3[nH]c(-c4ccccc4)cc3c2)CC1 [Compound 1], which stimulation index [1] is on record?
Answer: The stimulation index was “significantly increased”.

Question: What about the “insulin positive area in the grafted tissue” value ([2]; islets cultured 72 hours with Compound 1, vs control group, FIG. 7F) of the same molecule?
Answer: Its value is “greater”.

Question: What about the posttransplant glucose levels ([2]; islets cultured 72 hours with Compound 1, vs control, FIG. 7B) of the same molecule?
Answer: The posttransplant glucose levels was “significantly better”.

Question: And the diabetes reversal rate ([2]; islets cultured 72 hours with Compound 1, vs control, FIG. 7C)?
Answer: Its diabetes reversal rate is “significantly better”.

Question: And the “glucose levels during IPGTT” value ([2]; islets cultured 72 hours with Compound 1, vs control, FIG. 7D)?
Answer: Its value is “significantly better”.

Question: What about the “AUC of glucose during IPGTT” value ([2]; islets cultured 72 hours with Compound 1, vs control, FIG. 7E) of the same molecule?
Answer: The value was “significantly better”.

Question: And the “proportion of accumulation of amyloid in sections of islet grafts” value [3]?
Answer: Its value is “significantly reduced”.

Question: And the “cell viability assessed by AO/PI staining” value [4]?
Answer: The value was “significantly improved”.
